One test relates to T1, C45.
T1 construct: de novo 4-helix bundle with covalently attached heme C
Description: stopped-flow UV/visible kinetics of heme carbene formation. In kind it is biochemical, synthetic construct. As to conditions: ferrous protein, anaerobic, pH 8.6, 100 mM KCl, 20 mM CHES, 5 °C, ethanol present; no acceptor; single-turnover metallocarbenoid formation; covalent heme adduct; read-out: K1 (pseudo-Michaelis constant).

The target of a further test is T2, Rma-TDE (Rhodothermus marinus, UniProt B3FQS5, V103T/M128D/M131E).
T2 construct: gene cytC; engineered triple variant TDE of c-type cytochrome; synthetic gene, periplasmic expression from pSHT in E. coli T7 Express
T2 sequence (B3FQS5 entry or part of it V103T/M128D/M131E): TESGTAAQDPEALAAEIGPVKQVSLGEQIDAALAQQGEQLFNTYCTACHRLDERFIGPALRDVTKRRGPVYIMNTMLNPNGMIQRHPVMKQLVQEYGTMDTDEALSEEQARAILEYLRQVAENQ
The test is described as above. In kind it is biochemical. To be noted: read-out: K1 (pseudo-Michaelis constant); ferrous protein, anaerobic, pH 8.6, 100 mM KCl, 20 mM CHES, 5 °C, ethanol present; no acceptor; single-turnover metallocarbenoid formation; covalent heme adduct.

On to `CCOC(=O)C=[N+]=[N-]` [EDA], for which the Km with C45 stood at 74 µM; on Rma-TDE, 490 µM.

The record behind these values is paper PMC6983366, “A de novo peroxidase is also a promiscuous yet stereoselective carbene transferase” (Proceedings of the National Academy of Sciences of the …, 2020).
